In patent US20260028334A1, “N-(3-(BENZO[B]THIOPHENE-2-CARBOXAMIDO)-PHENYL)-2,3-DIHYDROBENZO[B][1,4]DIOXINE-6-CARBOXAMIDE DERIVATIVES AND RELATED COMPOUNDS AS LACTATE/ATP PRODUCTION INHIBITORS FOR THE TREATMENT OF CANCER” (WMT Aktiengesellschaft, priority 2022, published 2026):

Biological target: HIF1a (Homo sapiens (Human), UniProt Q16665)
Assay: Western Blot analysis of HIF1a
Format: cell-based
Settings: HeLa cells, 24 hours, 0.1, 0.3 and 1 μM, normoxic and hypoxic conditions, FIG. 4
Method: Western Blot analysis was used to detect amounts of specific protein in differently treated cells. Proteins are separated by size, transferred onto a nitrocellulose membrane and incubated with protein specific antibodies. The density of the observed band is proportional to the amount of the specific protein inside the cell.
Cells were plated at 4×10^6 (for hypoxia) or 3×10^6 (for normoxia) cells per […] plate in medium of high glucose DMEM (PAN) supplemented with 10% FBS (PAN), 2 mM glutamine-alanine (PAN), 2 mM pyruvate (Sigma) and 10 ml/L penicillin-streptomycin (PAN), and grown at 37° C. in 0.5% O2, 5% CO2 and 75% humidity. For hypoxia, cells were grown and treated in the Whitley H35 Hypoxystation (Don Whitley Scientific) at 37° C. in 0.5% O2, 5% CO2 and 75% humidity. Next day, the cells were treated with test compounds (FIG. 4: compounds of example 3/8 and 10 at concentrations 0.1, 0.3 and 1 μM, Bafilomycin A at 20 nM; FIG. 5: compounds of example 3/16, 3/8 and 10 at concentrations 10, 30 and 100 nM, Bafilomycin A at 20 nM), as well as with vehicle (DMSO) only, for 24 h. […] Protein concentration of the sample was measured using the DC Protein Assay Kit (Biorad, 5000112), 22 μg of protein extract per well was loaded onto a precast SDS page gel (Biorad, 1704273). […] The chemiluminescence was measured using chemiluminescent substrate (#34580, Thermo Scientific).

O=C(Nc1ccc(F)c(NC(=O)c2cc3ccc(OCCCN4CCCC4)cc3s2)c1)c1ccc2c(c1)OCCO2 [3/8]
HIF1a protein levels: dose-dependent reduction
